Test results taken from article PMC6796237 (ACS Omega, 2019).

Target: recombinant HCV NS3/4A GT1b wt (Hepatitis C virus genotype 1b, UniProt Q9WMX2)
Test: HCV NS3/4A enzymatic inhibition assay, wild type
Assay type: biochemical
Conditions: compounds at 13.08, 14.68, 4.60 μM of 1, 12, 22; 40 nM enzyme

Sequence of recombinant HCV NS3/4A GT1b wt (Q9WMX2 1027-1657 limits assumed): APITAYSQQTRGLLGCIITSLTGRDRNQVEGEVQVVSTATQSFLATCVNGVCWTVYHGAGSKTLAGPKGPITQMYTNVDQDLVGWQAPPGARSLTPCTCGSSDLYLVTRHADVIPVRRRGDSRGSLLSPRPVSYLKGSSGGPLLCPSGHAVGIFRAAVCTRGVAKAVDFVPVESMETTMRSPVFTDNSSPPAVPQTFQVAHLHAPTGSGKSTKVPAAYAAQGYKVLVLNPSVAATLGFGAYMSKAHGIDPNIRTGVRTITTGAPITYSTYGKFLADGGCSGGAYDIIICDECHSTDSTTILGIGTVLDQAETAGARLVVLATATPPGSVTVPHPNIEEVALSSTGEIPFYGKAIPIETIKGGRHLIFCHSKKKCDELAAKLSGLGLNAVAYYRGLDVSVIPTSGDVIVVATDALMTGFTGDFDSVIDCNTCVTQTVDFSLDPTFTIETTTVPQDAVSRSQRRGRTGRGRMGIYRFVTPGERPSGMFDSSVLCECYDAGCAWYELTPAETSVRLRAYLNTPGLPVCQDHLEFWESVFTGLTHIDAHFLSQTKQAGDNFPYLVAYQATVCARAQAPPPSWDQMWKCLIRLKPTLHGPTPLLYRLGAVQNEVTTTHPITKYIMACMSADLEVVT
Sequence of recombinant HCV NS3/4A GT1b wt (Q9WMX2 1658-1711 partner limits assumed): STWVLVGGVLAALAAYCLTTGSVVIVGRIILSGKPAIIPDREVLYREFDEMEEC

## 3-(1H-Indol-3-yl)-2-(3-(4-isopropylphenyl)ureido)-N-(3-(piperidin-1-yl)propyl)propenamide [Compound 22]
  Decrease of HCV NS3/4A activity: about 50%
